Assay results taken from PubChem BioAssay (NCI).
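Exposure lasted 48 hours, with cells grown in 96-well plates and compounds tested at five concentrations. TGI denotes the concentration required for complete inhibition of growth.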

How the values were obtained:
Test in all cases: NCI anticancer screen, dose series, 48 h
[1] = test system: A549 NSCLC
[2] = test system: CAKI-1 renal
[3] = test system: M14 melanoma
[4] = test system: MDA-MB-435
[5] = test system: NCI-H460 lung
[6] = test system: RPMI-8226 leukemia
[7] = test system: SK-MEL-2 melanoma
[8] = test system: SN12C renal
[9] = test system: U251 CNS
[10] = test system: SK-MEL-5 melanoma

SMILES | TGI [1] [µM] | TGI [2] [µM] | TGI [3] [µM] | TGI [4] [µM] | TGI [5] [µM] | TGI [6] [µM] | TGI [7] [µM] | TGI [8] [µM] | TGI [9] [µM] | TGI [10] [µM]
COc1ccccc1NCC(=O)Nn1c(C)nc2ccc(S(=O)(=O)Nc3ccccc3OC)cc2c1=O | > 100 | > 100 | > 100 | 85.2 | > 100 | > 100 | > 100 | > 100 | > 100 | 
C=C1c2nc3ccccc3n2C=C(c2ccc(OC)cc2)N1c1ccc(OCCN2CCOCC2)cc1 | > 100 | > 100 | > 55.4 | > 100 | > 49.9 | 9.05 | > 52.2 | > 100 | > 100 | > 100
C#CCCCC(=O)N(C(=O)CS(=O)CC)c1ccccc1 (stereo not given) | > 100 | > 100 | > 100 | > 100 | > 100 |  | > 100 | > 100 | > 100 | > 100
Cc1nc2c(=O)[nH]c3ccc(Cl)cc3c2o1 | > 100 | > 100 | > 100 | > 100 | > 100 | > 100 | > 100 | > 100 | > 100 | > 100
CN(C)c1ccc(/C=c2/c3cc([N+](=O)[O-])ccc3n3c2cc(-c2ccccc2)[n+]3C)cc1 | 11.7 | 23.4 | 2.66 | 1.84 | 11.7 | 1.72 | 1.68 |  | 1.32 | 1.11
CCOP(=O)(OCC)C(Nc1ccc(F)cc1)c1ccccc1 (stereo not given) | > 100 | > 100 | > 100 | > 100 | > 100 | > 100 | > 100 | > 100 | > 100 | > 100
CC(=O)OCC1OC(N2C(S)=C(C#N)C(c3ccco3)C(C(C)=O)=C2c2ccccc2)C(OC(C)=O)C(OC(C)=O)C1OC(C)=O (stereo not given) | > 100 | > 100 | > 100 | > 100 | > 100 | > 100 | > 100 | > 100 | > 100 | > 100
COC(=O)C(Cc1nc2ccccc2[nH]c1=O)C(=O)C(=O)Nc1cc(C(F)(F)F)ccc1Cl (stereo not given) | > 100 | 33.4 | 30.9 | > 100 | 39.9 | 51.5 | 34.9 | 54.8 | 66.6 | 56
O=C1c2cc([N+](=O)[O-])sc2C(=O)c2ccsc21 | 3.51 | 2.55 | 0.663 | 0.334 | 0.853 | 0.751 | 3.11 | 1.33 | 0.373 | 0.336
CC(C)N(C(C)C)P(OCCC#N)OC1CC(n2cnc3c(=O)[nH]cnc32)OC1COC(=O)NCCCCCCNC(=O)OC(C)(C)c1ccc(-c2ccccc2)cc1 (stereo not given) | > 100 | > 100 | 34.6 |  | 65 | 76.1 | > 100 | 54 | 43 | 40.9
CC1CC[C@@]2(OC1)OC1C[C@H]3[C@@H]4CCC5CC(O)CC[C@]5(C)[C@H]4C/C(=N\N(C)C)[C@]3(C)C1[C@@H]2C (stereo not given in full) | > 100 |  | > 100 | 58.2 | > 100 | > 100 | 45.6 | 64.7 | > 100 | 53.3
CC1(C)CC[C@]2(C(=O)O)[C@H](O)C[C@]3(C)C(=CC[C@@H]4[C@@]5(C)CC[C@H](OC6OC(C(=O)O)C(O)C(O)C6O)C(C)(C)[C@@H]5CC[C@]43C)[C@@H]2C1 (stereo not given in full) | > 100 | > 100 | > 100 | > 100 | > 100 | > 100 | > 100 | 94.9 | > 100 | > 100
CCCCNC(=S)Nc1nc(C(=O)NNC(=O)c2ccccc2)cs1 | 55.2 | 39 | 28.6 | 47.8 |  | > 100 | 35.9 | 38 | > 100 | 22.7
NCCCC[C@H](N)C(=O)Nc1ccc(-c2nc3ccccc3s2)cc1Cl | 9.08 | 19.2 | 13.8 | 9.58 | 13.7 |  | 32.7 | 27.7 | 13.7 | 25.9
O=C1N[C@@H](COc2ccc(C=Nc3ccc(CCc4ccc(N=Cc5ccc(OC[C@@H]6COC(=O)N6)cc5)cc4)cc3)cc2)CO1 | > 100 | > 100 | > 100 | > 100 |  | > 100 | > 100 | > 100 | > 100 | > 100
OC1c2ccccc2C(O)C2OC12 (stereo not given) | > 100 | > 100 | > 100 | > 100 | > 100 | > 100 | > 100 | > 100 | > 100 | > 100
c1ccc(CCn2cncn2)cc1 | > 100 |  | > 100 |  | > 100 |  |  | > 100 | > 100 | > 100
O=C(Oc1cccc(Cl)c1)c1cc2cc(CCl)ccc2oc1=O | > 100 | > 100 | 31.4 | > 100 | > 100 | > 100 | 28.9 | > 100 |  | 33.2
O=C1NC2(C=Cc3c(ccc4ccccc34)O2)Oc2ccccc21 (stereo not given) | > 100 |  | > 100 |  | > 100 | 47.6 | 56.5 | 63.4 | 62.5 | 29.5
CN1C(=O)N(C)C2(CCN(CCCCCCF)CC2)C1=O | > 100 | > 100 | > 100 | 71.1 |  | > 100 |  | > 100 | > 100 | > 100
CC1(C)c2ccccc2C(O)C12CCC(=O)CC2 (stereo not given) | 93.9 |  | > 100 | > 100 | > 100 | > 100 | > 100 | > 100 | > 100 | > 100
CCC1(O)CC(OC2CC(N(C)C)C(OC3CC(O)C(OC4CCC(=O)C(C)O4)C(C)O3)C(C)O2)c2c(O)c3c(c(O)c2C1C(=O)OC)C(=O)c1cccc(O)c1C3=O (stereo not given) |  | 0.0098 | 0.013 | 0.101 |  | 0.0755 | 0.0247 | 0.175 | 1.42 | 0.0261
